Data from patent US20240335431A1, “1-H-PYRROLO[2,3-c]PYRIDINE COMPOUNDS” (Acerta Pharma B.V., priority 2023, published 2024).
Read-outs that look alike come from different tables or passages of the source.

Tests used:
MOLM-13 cells = test: Proliferation assay, MOLM-13 (CellTiter-Glo, 7 days); format: cell-based, human
Description: (§1) The anti-proliferative effect of compounds was tested in human leukaemia cell lines. The cell lines […] and MV4; 11 each harbor an MLL translocation expressing the MLL fusion proteins MLL-AF9 and MLL-AF4, respectively. Each also express the wildtype protein from the second allele. OCI-AML3 cells carrying the NPM1c gene mutation were also tested.
(§2) MOLM-13 and HEL cells were cultured in RPMI 1640 (Gibco) supplemented with 10% FBS (Gibco) and 1% Pen/Strep (Gibco). MV4; 11 cells were cultured in IMDM (Gibco) supplemented with 10% FBS (Gibco) and 1% Pen/Strep (Gibco). OCI-AML3 cells were cultured in MEMa (Gibco) supplemented with 20% FBS (Gibco) and 1% Pen/Strep (Gibco).
(§3) To assess proliferative effects, 125 MOLM-13 cells, 300 MV4; 11 cells, 75 OCI-AML3 cells, and 200 HEL cells were seeded in 40 μL media per well in 384-well ViewPlates (Perkin Elmer, 6007480). Cell seeding numbers were chosen based on growth curves to ensure linear growth throughout the experiments. Test compounds were added at 3.16-fold serial dilutions in DMSO from […] and DMSO content was normalized to 0.1%. Cells were incubated for 7 days at 37° C. and 5% CO2. A day 0 plate was seeded for each cell line and used as a standard control.
(§4) To measure cell viability, CellTiter-Glo 2.0 (Promega, G9242) luminescent growth indicator was used. 10 μL CellTiter-Glo reagent was added per well. Plates were placed on a plate shaker for 2 minutes in the dark and left to incubate off the shaker for another 8 minutes in the dark, for a total of 10 minutes. Plates were read using an EnVision plate reader (Perkin Elmer) using the Luminescence aperture and a measurement time of 0.1 second.
(§5) Data were analyzed in Genedata Screener®. IC50 values were determined by plotting % inhibition versus log compound concentration and using a one site dose response model. Raw data signals were normalized using 0.1% DMSO media only as background control, 0.1% DMSO with cells no compound as 100% viability (maximum signal), and day 0 0.1% DM with cells no compound as 0% viability (minimum signal).

hERG = hERG (Homo sapiens (Human), UniProt Q12809); test: hERG assay 1 (standard), SyncroPatch 384PE; format: cell-based; settings: CHO cells, room temperature, up to 40 uM
Sequence of hERG (Q12809 whole entry): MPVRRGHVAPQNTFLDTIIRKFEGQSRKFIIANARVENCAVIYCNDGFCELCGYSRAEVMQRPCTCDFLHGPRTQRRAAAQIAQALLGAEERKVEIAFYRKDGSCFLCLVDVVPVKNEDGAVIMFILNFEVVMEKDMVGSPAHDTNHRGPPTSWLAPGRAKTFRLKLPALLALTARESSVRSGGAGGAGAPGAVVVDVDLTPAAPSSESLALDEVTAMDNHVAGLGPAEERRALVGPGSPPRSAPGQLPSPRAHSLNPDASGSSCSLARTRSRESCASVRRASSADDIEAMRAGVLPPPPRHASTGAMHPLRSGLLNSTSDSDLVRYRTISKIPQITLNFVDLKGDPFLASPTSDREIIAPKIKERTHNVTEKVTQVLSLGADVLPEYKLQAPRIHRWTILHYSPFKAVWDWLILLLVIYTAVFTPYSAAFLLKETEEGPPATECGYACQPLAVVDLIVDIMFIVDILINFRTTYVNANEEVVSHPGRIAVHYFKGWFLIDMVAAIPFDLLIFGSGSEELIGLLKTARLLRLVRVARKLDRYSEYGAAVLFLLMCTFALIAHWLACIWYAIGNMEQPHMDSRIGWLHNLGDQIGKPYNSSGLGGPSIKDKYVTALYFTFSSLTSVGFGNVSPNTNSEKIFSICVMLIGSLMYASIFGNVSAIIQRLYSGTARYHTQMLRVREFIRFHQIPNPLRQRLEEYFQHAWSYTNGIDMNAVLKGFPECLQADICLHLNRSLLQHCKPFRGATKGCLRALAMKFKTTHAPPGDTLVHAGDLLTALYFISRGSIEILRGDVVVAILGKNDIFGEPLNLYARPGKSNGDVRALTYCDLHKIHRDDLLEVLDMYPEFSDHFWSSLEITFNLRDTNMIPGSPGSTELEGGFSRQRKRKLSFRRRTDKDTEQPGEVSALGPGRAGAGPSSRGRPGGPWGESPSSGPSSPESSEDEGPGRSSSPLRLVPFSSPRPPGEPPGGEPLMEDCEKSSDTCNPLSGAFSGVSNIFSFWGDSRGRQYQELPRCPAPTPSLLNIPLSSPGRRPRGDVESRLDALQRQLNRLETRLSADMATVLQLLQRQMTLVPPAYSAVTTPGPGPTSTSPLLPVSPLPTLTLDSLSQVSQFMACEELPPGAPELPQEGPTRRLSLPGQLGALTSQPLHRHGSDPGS
Description: Experiments were performed on the SyncroPatch 384PE (Nanion Technologies) high throughput patch clamp platform at room temperature and used medium resistance chips with 4 patch holes per site. hERG-expressing Chinese hamster ovary K1 (CHO) cell line was used in assay-ready format and kept in liquid nitrogen until use. 2 vials of cells (10×10^6 cells per vial) were thawed and added to 20 ml Hepes-buffered saline solution (HBSS). HBSS comprised 140 mM NaCl, 4 mM KCl, 10 mM HEPES and 5 mM Glucose (pH 7.4). The internal patch clamp solution was KF 120 mM, KCl 20 mM, HEPES 10 mM, EGTA 10 mM, and 25 μM Escin (pH 7.2). After the initial sealing process was complete, a seal enhancer solution comprising HBSS supplemented with 10 mM CaCl2 and 1 mM MgCl2 was applied to cells. The external solution was then exchanged (4 times) for external patch clamp solution comprising NaCl 80 mM, KCl 4 mM, HEPES 10 mM, CaCl2 2 mM, MgCl2 1 mM, glucose 5 mM, and NMDG 60 mM (pH7.4). All compounds were dispensed from initial 10 mM DMSO stocks. An industry standard +60/−40 mV voltage protocol was applied every 15 seconds. Compounds were tested in a 6-point cumulative assay (final DMSO concentration 0.33%), with a concentration range of 139 nM to 40 uM. Data were analyzed in Genedata Screener®. IC50 values were determined by plotting % inhibition versus log compound concentration and using a one site dose response model. Only wells that passed acceptance criteria for this platform were used in this analysis (30 MegaOhm seal resistance, Z prime >0.4 and current size >0.2 nA).

[1] = Human liver microsomes (HLMs) intrinsic clearance assay; format: in vitro ADME
Description: Human liver microsomes (HLMs) were obtained from Corning (UltraPool 150 donors) at a concentration of 20 mg/mL protein. HLMs were stored at −80° C. until use and prior to use, thawed in a 37° C. water bath and then stored on wet ice. DMSO and NADPH were sourced from Solarbio S&T Co Ltd.
2 mL of 10 mM DMSO stock solutions of test compound were added to 198 mL acetonitrile to produce […] concentration. 1325 mL of 20 mg/mL HLM were added to 22260 mL of phosphate buffer to produce the HLM mixture. An 8.334 mg/mL solution of NADPH was prepared in 100 mmol/L pH 7.4 phosphate buffer.
222.5 mL of the HLM mixture and 25 mL of the 10 mM NADPH were added into the incubation plates (1 mL 96 well deep well plate from Thermo). The mixture was vortexed for 10 seconds at 1000 rpm. The incubation plate was pre-warmed in a water bath at 37° C. for 8 minutes. 2.5 mL of the […] stocks of test compound was added to initiate the reaction. The mix was vortexed for 12 seconds at 1000 rpm and incubated at 37° C. The incubation mixture (250 mL) contained 1 mg/mL HLM, 1 mmol/L NADPH and […].
The reaction was quenched by transferring 20 mL of the incubation mixture at 0.5, 5, 10, 15, 20 and 30 minutes into the quenching plate containing 100 mL of cold stop solution (acetonitrile containing internal standards). The plate was vortexed at 800 rpm for 2 minutes.
The quenching plates were centrifuged for 20 minutes at 4000 rpm and 4° C. 40 mL of the supernatant was transferred into a 96-well analysis plate containing 160 mL of water. The analysis plate was shaken at 1000 rpm for 2 minutes and the samples analysed by LC-MS/MS.
Peak areas were determined from extracted ion chromatograms. Percent parent remaining was calculated from peak area of test compound. The slope value, k, was determined by linear regression of the natural logarithm of percent parent remaining versus incubation time. The in vitro half-life (t1/2) was determined from the slope value by the equation: […]
Conversion of the in vitro half-life (min) into in vitro CLint (mL/min/mg proteins) was completed using the equation: […]

HEL cells = test: Proliferation assay, HEL control cell line (CellTiter-Glo, 7 days); format: cell-based, human
Description: as §1, §2, §3, §4, §5

Menin protein = Menin protein (Homo sapiens, UniProt O00255, DEL460-519); test: Menin/MLL fluorescence polarization (FP) assay; format: binding; settings: Menin 2 nM, cRho110-Ahx-MBM1/MBM2 peptide 1 nM
Sequence of Menin protein (O00255 with tags, fused parts or gaps DEL460-519): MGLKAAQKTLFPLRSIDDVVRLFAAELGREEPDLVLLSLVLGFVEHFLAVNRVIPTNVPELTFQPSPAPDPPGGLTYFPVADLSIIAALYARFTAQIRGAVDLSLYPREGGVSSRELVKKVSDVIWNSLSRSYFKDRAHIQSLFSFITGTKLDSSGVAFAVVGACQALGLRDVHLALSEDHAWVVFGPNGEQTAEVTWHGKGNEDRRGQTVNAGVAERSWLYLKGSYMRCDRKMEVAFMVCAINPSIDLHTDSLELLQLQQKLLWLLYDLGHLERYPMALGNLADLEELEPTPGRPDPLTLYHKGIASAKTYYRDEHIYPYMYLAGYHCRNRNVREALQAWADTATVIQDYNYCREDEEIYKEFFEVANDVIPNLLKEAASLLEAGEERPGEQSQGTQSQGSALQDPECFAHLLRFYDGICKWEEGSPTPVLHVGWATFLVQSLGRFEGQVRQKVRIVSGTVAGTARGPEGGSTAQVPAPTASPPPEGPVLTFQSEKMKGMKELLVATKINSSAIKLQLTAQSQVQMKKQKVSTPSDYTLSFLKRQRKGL
Description: Compounds were tested in a biochemical binding assay using Menin protein at 2 nM (N6his-tev-Menin_4i80, PB-20-1459) and the substrate cRho110-Ahx-MBM1/MBM2 peptide (UbiQ, UbiQ-Q20201030; cRh110-Ahx-[…]-QRVPALLLPPG-NH2) at 1 nM.
384 Low volume black plates (Corning #4514) were used. 5 μL/well compound or 3% DMSO was added at 10-fold serial dilutions in DMSO from 10 μM. 5 μL/well cRho110-Ahx-MBM1/MBM2 peptide or binding buffer (50 mM Tris pH 7.5, 50 mM NaCl, 1 mM TCEP, 0.01% BGG, 0.01% Brij-35) was added to all wells. 5 μL/well Menin protein or binding buffer (50 mM Tris pH 7.5, 50 mM NaCl, 1 mM TCEP, 0.01% BGG, 0.01% Brij-35) was added to all wells. Plates were read on an EnVision plate reader (Perkin Elmer) with excitation at 480 nm and emission at 535 nm P+S, and measured every 5 minutes for 180 minutes.
Data were analyzed in Genedata Screener®. IC50 values were determined by plotting % inhibition versus log compound concentration and using a one site dose response model. Raw data signals were normalized using 1% DMSO no Menin as 100% inhibitor control and 1% DMSO with Menin and no inhibitor as 0% inhibitor control.

[2] = Human hepatocyte intrinsic clearance assay; format: in vitro ADME; settings: human hepatocytes
Description: Human hepatocytes (LiverPool™ 10-Donor Human hepatocytes (Mixed Gender, PEG-free, Product No. S01205, 5 million cells per vial) were obtained from BioreclamationIVT. DMSO was sourced from Solarbio S&T Co Ltd. Leibovitz's L-15 Medium, Williams' Medium E, GlutaMAX™-1 (100×), HEPES, DPBS (10×) and Human Recombinant Insulin Solution were purchased from Gibco. Isotonic Percoll Solution was purchased from GE Healthcare. Fetal Bovine Serum (FBS) was purchased from Corning.
10 mM dexamethasone stock solution was prepared by dissolving 3.9 mg dexamethasone in 1 mL of DMSO. An Isotonic Percoll Solution was prepared by dilution of Percoll with DPBS (10×). 15 mL of Isotonic Percoll Solution (90% Percoll/10% DPBS) was added to 31.25 mL William's E medium containing 500 mL of GlutaMAX™-1 (100×), 750 mL of 1M HEPES, 2.5 mL of 5% FBS, 50 mL of 4 mg/mL Human Recombinant Insulin Solution and 5 mL of the 10 mM dexamethasone stock.
2 mL of 10 mM DMSO stock solutions of test compound were added to 198 mL acetonitrile to produce 100 mmol/L concentration.
The human hepatocyte vial was thawed at 37° C. in a waterbath. Once thawed, contents were poured into a 50 mL conical tube and centrifuged at 100 g for 10 minutes. The thawing medium was poured out and 4 mL L-15 medium was added. The tube was gently shaken to resuspend the hepatocytes and cells were counted with an appropriate cell counter. 247.5 mL of the hepatocyte suspension was transferred into each well of the plate and pre-warmed at 600 rpm and 50° C. to enable the temperature to rise to 37° C.
2.5 mL of the […] test compound solution was added to initiate the reaction (final concentration […]) and incubated at 37° C. with shaking at 900 rpm. At 0.5, 5, 15, 30, 45, 60, 80, 100 and 120 minutes, 20 mL was taken into a quenching solution of acetonitrile containing internal standards. The mix was vortexed at 800 rpm for 2 minutes followed by centrifugation for 20 minutes at 4000 rpm at 4° C. 40 mL of supernatant was transferred into a 96 well analysis plate containing 160 mL of water in each well. The analysis plate was shaken at 100 rpm for 2 minutes prior to analysis by LC-MS/MS.
Peak areas were determined from extracted ion chromatograms. Percent parent remaining was calculated from peak area of test compound. The slope value, k, was determined by linear regression of the natural logarithm of percent parent remaining versus incubation time.
The in vitro intrinsic clearance (in vitro CLint in mL/min/10^6 cells) was determined from the slope value using the following equation: […]
where V is the incubation volume (0.25 mL) and N is the number of hepatocytes per well (0.25×10^6 cells).

[3] = human, microsomes, 1 µM, pH 7.4

| Structure (SMILES) | IC50 (MOLM-13 cells; Homo sapiens, MOLM-13, 168 h) [µM] | microsomal CLint at 1 µM ([1]; human, microsomes, pH 7.4, HLM CLint) [µL/min/mg] | IC50 (Menin protein) [µM] | HLM CLint [1, 3] [µL/min/mg] | IC50 (hERG) [µM] | IC50 (HEL cells; Homo sapiens, HEL, 168 h) [µM] | IC50 (MOLM-13 cells) [µM] | IC50 (HEL cells) [µM] | HLM CLint ([1]; 1 mg/mL HLM, NADPH) [µL/min/mg] | HH CLint [2] [μl/min/1E6] |
| --- | --- | --- | --- | --- | --- | --- | --- | --- | --- | --- |
| [2H]C([2H])([2H])C([2H])(N(C(=O)c1cc(F)ccc1-n1c(C)c(C(=O)C2CCN(C(=O)[C@@H]3CCC(C)(C)N3)CC2)c2ccncc21)C([2H])(C([2H])([2H])[2H])C([2H])([2H])[2H])C([2H])([2H])[2H] [Example 59, (S)-2-(3-(1-(5,5-Dimethylpyrrolidine-2-carbonyl)piperidine-4-carbonyl)-2-methyl-1H-pyrrolo[2,3-c]pyridin-1-yl)-5-fluoro-N,N-bis(propan-2-yl-d7)benzamide] | 0.094 | 59 | 0.102 | – | > 40 | > 10 | – | – | – | – |
| CCN(C(=O)c1cc(F)ccc1-n1c(C)c(C(=O)[C@@H]2CCN(C(=O)[C@@H]3CCC4(CC4)N3)[C@@H](C)C2)c2ccncc21)C(C)C (single isomer, unassigned) [Example 52-4, N-Ethyl-5-fluoro-N-isopropyl-2-(2-methyl-3-((2R*,4S*)-2-methyl-1-((S)-4-azaspiro[2.4]heptane-5-carbonyl)piperidine-4-carbonyl)-1H-pyrrolo[2,3-c]pyridin-1-yl)benzamide] | – | – | 2.47 | – | – | – | 1.09 | > 10 | >300 | 7.9 |
| CCN(C(=O)c1cc(F)ccc1-n1c(C)c(C(=O)[C@@H]2CCN(C(=O)[C@@H]3CCC4(CC4)N3)[C@@H](C)C2)c2ccncc21)C(C)C (single isomer, unassigned) [Example 52-3, N-Ethyl-5-fluoro-N-isopropyl-2-(2-methyl-3-((2R*,4S*)-2-methyl-1-((S)-4-azaspiro[2.4]heptane-5-carbonyl)piperidine-4-carbonyl)-1H-pyrrolo[2,3-c]pyridin-1-yl)benzamide] | – | – | 5.95 | – | – | – | 1.47 | > 10 | 210 | 5.7 |

Now from value to molecule, other results behind:

| IC50 (MOLM-13 cells; Homo sapiens, MOLM-13, 168 h) [µM] | microsomal CLint at 1 µM ([1]; human, microsomes, pH 7.4, HLM CLint) [µL/min/mg] | IC50 (Menin protein) [µM] | HLM CLint [1, 3] [µL/min/mg] | Structure (SMILES) | IC50 (hERG) [µM] | IC50 (HEL cells; Homo sapiens, HEL, 168 h) [µM] | IC50 (MOLM-13 cells) [µM] | IC50 (HEL cells) [µM] | HLM CLint ([1]; 1 mg/mL HLM, NADPH) [µL/min/mg] | HH CLint [2] [μl/min/1E6] |
| --- | --- | --- | --- | --- | --- | --- | --- | --- | --- | --- |
| – | – | > 10 | 95 | Cc1c(C(=O)C2CCN(C(=O)[C@H]3NC[C@@H]4C[C@@H]43)CC2)c2ccncc2n1-c1ccc(F)cc1C(=O)N(C(C)C)[C@H](C)C(F)(F)F (single isomer, unassigned) [Example 57-2] | > 40 | – | > 10 | > 10 | – | – |
| – | – | 7.8 | 77 | Cc1c(C(=O)[C@@H]2CCN(C(=O)[C@H]3NC[C@@H]4C[C@@H]43)[C@@H](C)C2)c2ccncc2n1-c1ccc(F)cc1C(=O)N(CC(F)(F)F)C(C)C (single isomer, unassigned) [Example 53-2, 2-(3-((2R*,4S*)-1-((1S,2S,5R)-3-Azabicyclo[3.1.0]hexane-2-carbonyl)-2-methylpiperidine-4-carbonyl)-2-methyl-1H-pyrrolo[2,3-c]pyridin-1-yl)-5-fluoro-N-isopropyl-N-(2,2,2-trifluoroethyl)benzamide] | – | – | 1.3 | > 10 | – | – |
